Measured values reported in patent US8952034B2, “Fused heterocyclic compounds as ion channel modulators” (Gilead Sciences, Inc., priority 2009, dated 2015).

Target: wild-type human cardiac sodium channel, hNav1.5 (Homo sapiens, UniProt Q14524)
Assay: Late INa screening assay (automated whole cell patch clamp, PatchXpress)
Type: cell-based
Settings: HEK293 cells expressing hNav1.5, late INa generated with 10 μM Tefluthrin (or 50 nM ATX II); for inhibition at 1 µM: compound at 1 μM, read-out: LateINa_1 uM (percent block of late INa); for inhibition at 10 µM: compound at 10 μM, read-out: LateINa_10 uM (percent block of late INa)
Method: The late sodium current (Late INa) and peak sodium current (Peak INa) assays are performed on an automated electrophysiology platform, PatchXpress 7000A (MDS Analytical Technologies, Sunnyvale, Calif.), which uses the whole cell patch clamp technique to measure currents through the cell membrane of up to 16 cells at a time. The assay uses an HEK293 (human embryonic kidney) cell line heterologously expressing the wild-type human cardiac sodium channel, hNav1.5, purchased from Millipore (Billerica, Mass.). No beta subunits were coexpressed with the Na channel alpha subunit. Cells are maintained with standard tissue culture procedures and stable channel expression is maintained with 400 μg/ml Geneticin in the culture medium. […] Experiments are carried out at 24-27° C.
For both the Late INa and Peak INa assays, series resistance compensation is set to 50% and whole-cell compensation is performed automatically. […] Currents through open sodium channels are automatically recorded and stored in the DataXpress2 database (MDS Analytical Technologies, Sunnyvale, Calif.). Analysis is performed using DataXpress2 analysis software and data are compiled in Excel.
Compound stocks are routinely made in glass vials to 10 mM in dimethyl sulfoxide (DMSO). In some cases, when compounds are not soluble in DMSO, they are made in 100% ethanol. Stocks are sonicated as necessary. The extracellular solution for screening Late INa is composed of: 140 mM NaCl, 4 mM KCl, 1.8 mM CaCl2, 0.75 mM MgCl2, and 5 mM HEPES with pH adjusted to 7.4 using NaOH. The extracellular solution for screening Peak INa is composed of: 20 mM NaCl, 120 mM N-methyl-D glucamine, 4 mM KCl, 1.8 mM CaCl2, 0.75 mM MgCl2, and 5 mM HEPES with pH adjusted to 7.4 using HCl. The intracellular solution used to perfuse the inside of the cells for both the Late INa and Peak INa assays contains: 120 mM CsF, 20 mM CsCl, 5 mM EGTA, 5 mM HEPES and pH adjusted to 7.4 with CsOH. […] The 0Na extracellular solution used at the end of each experiment for the Late INa and Peak INa assays to measure baseline current contains: 140 mM N-methyl-D-glucamine; 4 mM KCl; 1.8 mM CaCl2; 0.75 mM MgCl2; 5 mM HEPES and pH was adjusted to 7.4 with HCl.
For the Late INa assay, sodium channels are activated every 10 seconds (0.1 Hz) by depolarizing the cell membrane to −20 mV for 250 milliseconds (ms) from a holding potential of −120 mV. In response to a −20 mV voltage step, typical Nav1.5 sodium currents activate rapidly to a peak negative current and then inactivate nearly completely within […].
All compounds are tested to determine their activity in blocking the late sodium current. Late INa current is generated by adding 10 μM Tefluthrin (pyrethroid) to the extracellular solution while recording Na currents For some experiments, 50 nM ATX II (sea anemone toxin), another late INa activator, was used to generate the late component. […] After establishing the whole cell recording configuration, late INa activators are added to each well 4 times over a 16-17 minute period so that the late component of the Na current reaches a stable value. […] Measurements are made at the end of exposure to the third compound addition and values are normalized to the current level when all Na^+ is removed from the extracellular solution after two additions of 0Na-ECF. Results are reported as percent block of late INa

wild-type human cardiac sodium channel, hNav1.5, sequence (Q14524 whole entry): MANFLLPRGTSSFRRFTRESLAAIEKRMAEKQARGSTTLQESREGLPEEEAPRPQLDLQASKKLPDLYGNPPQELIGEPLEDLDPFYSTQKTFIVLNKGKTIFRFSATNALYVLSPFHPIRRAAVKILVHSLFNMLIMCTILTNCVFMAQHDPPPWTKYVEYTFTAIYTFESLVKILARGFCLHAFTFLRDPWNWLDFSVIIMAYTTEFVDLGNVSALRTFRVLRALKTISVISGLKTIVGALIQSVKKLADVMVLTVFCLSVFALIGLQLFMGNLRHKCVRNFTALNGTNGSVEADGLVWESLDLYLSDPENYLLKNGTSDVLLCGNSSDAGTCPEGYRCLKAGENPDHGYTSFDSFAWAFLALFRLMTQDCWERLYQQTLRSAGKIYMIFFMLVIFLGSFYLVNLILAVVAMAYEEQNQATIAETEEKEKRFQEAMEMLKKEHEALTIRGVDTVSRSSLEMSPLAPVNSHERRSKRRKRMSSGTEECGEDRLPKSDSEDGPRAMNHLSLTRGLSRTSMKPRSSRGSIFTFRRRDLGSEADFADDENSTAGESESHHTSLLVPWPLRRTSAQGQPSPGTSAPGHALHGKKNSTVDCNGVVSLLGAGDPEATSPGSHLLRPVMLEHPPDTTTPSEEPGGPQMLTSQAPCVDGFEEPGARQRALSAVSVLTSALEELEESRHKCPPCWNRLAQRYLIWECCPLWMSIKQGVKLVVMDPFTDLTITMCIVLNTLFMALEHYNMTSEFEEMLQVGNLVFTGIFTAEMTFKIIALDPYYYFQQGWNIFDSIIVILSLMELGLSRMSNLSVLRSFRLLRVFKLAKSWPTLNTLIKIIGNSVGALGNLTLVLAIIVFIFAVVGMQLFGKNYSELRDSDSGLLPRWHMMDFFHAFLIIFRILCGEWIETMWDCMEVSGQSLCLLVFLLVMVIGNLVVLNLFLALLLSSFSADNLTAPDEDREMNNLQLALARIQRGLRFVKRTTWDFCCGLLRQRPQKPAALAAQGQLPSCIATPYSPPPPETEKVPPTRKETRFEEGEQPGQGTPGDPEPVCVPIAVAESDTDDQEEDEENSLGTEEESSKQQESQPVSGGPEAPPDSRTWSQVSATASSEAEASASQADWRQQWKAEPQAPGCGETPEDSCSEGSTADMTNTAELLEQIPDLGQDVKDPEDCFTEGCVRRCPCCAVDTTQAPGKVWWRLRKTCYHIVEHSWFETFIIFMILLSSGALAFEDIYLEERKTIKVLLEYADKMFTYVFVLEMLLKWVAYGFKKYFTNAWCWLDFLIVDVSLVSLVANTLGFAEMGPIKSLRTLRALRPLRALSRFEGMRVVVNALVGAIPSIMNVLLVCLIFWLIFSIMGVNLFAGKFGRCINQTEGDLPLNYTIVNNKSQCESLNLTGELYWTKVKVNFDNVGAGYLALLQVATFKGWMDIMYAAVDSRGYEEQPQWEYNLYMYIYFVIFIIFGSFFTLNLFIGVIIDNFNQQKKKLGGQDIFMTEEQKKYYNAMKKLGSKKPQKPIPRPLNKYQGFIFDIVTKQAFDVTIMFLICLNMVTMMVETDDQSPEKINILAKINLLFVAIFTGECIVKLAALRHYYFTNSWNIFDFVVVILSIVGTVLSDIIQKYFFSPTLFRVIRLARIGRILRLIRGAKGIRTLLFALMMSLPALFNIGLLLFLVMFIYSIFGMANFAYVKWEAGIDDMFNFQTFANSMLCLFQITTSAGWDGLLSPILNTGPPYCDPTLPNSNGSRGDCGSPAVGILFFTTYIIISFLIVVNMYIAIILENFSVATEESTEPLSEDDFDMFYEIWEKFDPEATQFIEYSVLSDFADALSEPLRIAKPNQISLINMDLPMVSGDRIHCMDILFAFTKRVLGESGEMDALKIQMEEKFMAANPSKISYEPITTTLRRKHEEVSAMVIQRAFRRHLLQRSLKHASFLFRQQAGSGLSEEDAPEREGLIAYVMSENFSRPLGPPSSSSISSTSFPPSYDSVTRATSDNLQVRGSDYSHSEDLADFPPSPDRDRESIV

Compound	inhibition at 1 µM	inhibition at 10 µM
CC(OC(F)(F)c1cccnc1)c1nnc2ccc(-c3ccc(OC(F)(F)F)cc3)cn12 (stereo not drawn) [BHN-249, 3-{1-[difluoro(pyridin-3-yl)methoxy]ethyl}-6-[4-(trifluoromethoxy)phenyl][1,2,4]triazolo[4,3-a]pyridine]	22.7%	–
COCC(F)(F)c1nnc2ccc(C#Cc3ccc(C(F)(F)F)cc3)cn12 [BHN-234, 3-(1,1-difluoro-2-methoxyethyl)-6-{[4-(trifluoromethyl)phenyl]ethynyl}[1,2,4]triazolo[4,3-a]pyridine]	57.8%	–
Cc1noc(-c2cc(-c3ccc4nnc(C(F)(F)F)n4c3)ccc2OC(F)(F)F)n1 [BHN-182, 6-[3-(3-methyl-1,2,4-oxadiazol-5-yl)-4-(trifluoromethoxy)phenyl]-3-(trifluoromethyl)[1,2,4]triazolo[4,3-a]pyridine]	18.9%	–
FC(F)(F)c1ccc(-c2ccc3nnc(C(F)(F)OCC4CC4)n3c2)cn1 [BHN-275, 3-[(cyclopropylmethoxy)(difluoro)methyl]-6-[6-(trifluoromethyl)pyridin-3-yl][1,2,4]triazolo[4,3-a]pyridine]	28.6%	–
FC(F)(F)Oc1ccc(-c2ccc3nnc(COCc4ccccc4C(F)(F)F)n3c2)cc1 [BHN-239, 6-[4-(trifluoromethoxy)phenyl]-3-({[2-(trifluoromethyl)benzyl]oxy}methyl)[1,2,4]triazolo[4,3-a]pyridine]	65.1%	–
CC(C)Oc1cc(OC(F)(F)F)ccc1-c1ccc2nnc(C(F)(F)F)n2c1 [BHN-223, 6-[2-(propan-2-yloxy)-4-(trifluoromethoxy)phenyl]-3-(trifluoromethyl)[1,2,4]triazolo[4,3-a]pyridine]	54.5%	–
FC(F)(F)Oc1ccc(-c2ccc3nnc(C(F)(F)OCc4cccc(-n5cnc(C6CC6)c5)c4)n3c2)cc1 [BHN-317, 3-[{[3-(4-cyclopropyl-1H-imidazol-1-yl)benzyl]oxy}(difluoro)methyl]-6-[4-(trifluoromethoxy)phenyl][1,2,4]triazolo[4,3-a]pyridine]	46.4%	–
Fc1cc(-c2ccc3nnc(C(F)(F)F)n3c2)ccc1OC(F)(F)F [BHN-146, 6-[3-fluoro-4-(trifluoromethoxy)phenyl]-3-(trifluoromethyl)[1,2,4]triazolo[4,3-a]pyridine]	58.2%	–
CC(OCc1ccccn1)c1nnc2ccc(-c3ccc(OC(F)(F)F)cc3)cn12 (stereo not drawn) [BHN-255, 3-[1-(pyridin-2-ylmethoxy)ethyl]-6-[4-(trifluoromethoxy)phenyl][1,2,4]triazolo[4,3-a]pyridine]	22.8%	–
Cc1ccccc1Oc1nnc2ccc(-c3ccc(OC(F)(F)F)cc3)cn12 [BHN-273, 3-(2-methylphenoxy)-6-[4-(trifluoromethoxy)phenyl][1,2,4]triazolo[4,3-a]pyridine]	68.7%	–
FC(F)(F)Oc1ccc(-c2ccc3nnnn3c2)cc1 [BHN-98, 6-[4-(trifluoromethoxy)phenyl]tetrazolo[1,5-a]pyridine]	54.1%	–
CNC(=O)c1cccc(-c2nnc3ccc(-c4ccc(OC(F)(F)F)cc4)cn23)c1 [BHN-99, N-methyl-3-{6-[4-(trifluoromethoxy)phenyl][1,2,4]triazolo[4,3-a]pyridin-3-yl}benzamide]	19.6%	–
FC(F)(F)Oc1ccc(-c2ccc3nnc(C(F)(F)OCc4ccccc4-n4cncn4)n3c2)cc1 [BHN-311, 3-(difluoro{[2-(1H-1,2,4-triazol-1-yl)benzyl]oxy}methyl)-6-[4-(trifluoromethoxy)phenyl][1,2,4]triazolo[4,3-a]pyridine]	47.3%	–
FC(F)(F)Oc1ccc(-c2ccc3nnc(C(F)(F)OCc4ccc5c(c4)OC(F)(F)O5)n3c2)cc1 [BHN-225, 3-{[(2,2-difluoro-1,3-benzodioxol-5-yl)methoxy](difluoro)methyl}-6-[4-(trifluoromethoxy)phenyl][1,2,4]triazolo[4,3-a]pyridine]	63%	–
CC(C)c1nnc2ccc(-c3ccc(Oc4ccccc4)cc3)nn12 [BHN-32, 6-(4-phenoxyphenyl)-3-(propan-2-yl)[1,2,4]triazolo[4,3-b]pyridazine]	63.4%	83.4%
Cn1ncc2cc(-c3ccc4nnc(C(F)(F)F)n4c3)ccc21 [BHN-59, 6-(1-methyl-1H-indazol-5-yl)-3-(trifluoromethyl)[1,2,4]triazolo[4,3-a]pyridine]	–	39.8%
FC(F)(F)Oc1ccc(-c2ccc3nnc(-c4ccccc4)n3c2)cc1 [BHN-21, 3-phenyl-6-[4-(trifluoromethoxy)phenyl][1,2,4]triazolo[4,3-a]pyridine]	65.2%	86.5%
CC(C)(O)COCC(F)(F)c1nnc2ccc(-c3ccc(OC(F)(F)F)cc3)cn12 [BHN-205, 1-(2,2-difluoro-2-{6-[4-(trifluoromethoxy)phenyl][1,2,4]triazolo[4,3-a]pyridin-3-yl}ethoxy)-2-methylpropan-2-ol]	25.2%	–
COCC(F)(F)c1nnc2ccc(-c3ccc(OC(F)(F)F)c(C)c3)cn12 [BHN-188, 3-(1,1-difluoro-2-methoxyethyl)-6-[3-methyl-4-(trifluoromethoxy)phenyl][1,2,4]triazolo[4,3-a]pyridine]	41.3%	–
FC(F)(F)Oc1ccc(-c2ccc3nnc(C(F)(F)OCc4cn(-c5ccccc5)nc4C(F)(F)F)n3c2)cc1 [BHN-314, 3-(difluoro{[1-phenyl-3-(trifluoromethyl)-1H-pyrazol-4-yl]methoxy}methyl)-6-[4-(trifluoromethoxy)phenyl][1,2,4]triazolo[4,3-a]pyridine]	24.2%	–
Cc1cc(-c2ccc(OC(F)(F)F)cc2)cn2c(C(F)(F)F)nnc12 [BHN-103, 8-methyl-6-[4-(trifluoromethoxy)phenyl]-3-(trifluoromethyl)[1,2,4]triazolo[4,3-a]pyridine]	40.7%	–
c1ccc(Oc2cccc(-c3ccc4ncnn4c3)c2)cc1 [BHN-347, 6-(3-phenoxyphenyl)[1,2,4]triazolo[1,5-a]pyridine]	–	73.6%
CC(OC(F)(F)c1nnc2ccc(-c3ccc(OC(F)(F)F)cc3)cn12)c1cnc2ccccc2c1 (stereo not drawn) [BHN-282, 3-[1-(difluoro{6-[4-(trifluoromethoxy)phenyl][1,2,4]triazolo[4,3-a]pyridin-3-yl}methoxy)ethyl]quinoline]	62.7%	–
FC(F)(F)COc1nnc2ccc(-c3ccc(OC(F)(F)F)cc3)cn12 [BHN-186, 3-(2,2,2-trifluoroethoxy)-6-[4-(trifluoromethoxy)phenyl][1,2,4]triazolo[4,3-a]pyridine]	45.2%	–
CS(=O)(=O)NCC(F)(F)c1nnc2ccc(-c3ccc(OC(F)(F)F)cc3)cn12 [BHN-175, N-(2,2-difluoro-2-{6-[4-(trifluoromethoxy)phenyl][1,2,4]triazolo[4,3-a]pyridin-3-yl}ethyl)methanesulfonamide]	16.3%	–
FC(F)(F)Oc1ccc(-c2ccc3nnc(COC(F)(F)c4cccnc4)n3c2)cc1 [BHN-257, 3-{[difluoro(pyridin-3-yl)methoxy]methyl}-6-[4-(trifluoromethoxy)phenyl][1,2,4]triazolo[4,3-a]pyridine]	46.2%	–
FC(F)(F)Oc1ccc(-c2ccc3nnc(C(F)(F)CCl)n3c2)cc1 [BHN-160, 3-(2-chloro-1,1-difluoroethyl)-6-[4-(trifluoromethoxy)phenyl][1,2,4]triazolo[4,3-a]pyridine]	62%	–
CS(=O)(=O)c1ccc(-c2nnc3ccc(-c4ccc(Oc5ccccc5)cc4)nn23)cc1 [BHN-47, 3-[4-(methylsulfonyl)phenyl]-6-(4-phenoxyphenyl)[1,2,4]triazolo[4,3-b]pyridazine]	–	50.7%
